The structures appear in SMILES notation. Where “and” joins values, the source holds several entries; their conditions need not be identical. Identical values can stand only once. Like-named read-outs stand apart in the source and are kept apart here. *1 amine or outer side, *2 acyl side, *3 side chain or, on linkers, in order; H or OH if unused. Where a SMILES comes first, the peptide text is derived from it. Bridges are numbered along the chain shown (N, C = ends). The star is where a group is joined. Fluorescein(5-Mal) = O=C1OC2(c3ccc(O)cc3Oc3cc(O)ccc32)c2ccc(N3C(=O)CC(*)C3=O)cc21; X2 = CN(C)c1ccc2c(-c3ccc(N4C(=O)CC(*)C4=O)cc3C(=O)[O-])c3ccc(=[N+](C)C)cc-3oc2c1; X1 = O=C(c1cccc(C[*:2])c1)[*:1]; X3 = Fc1c(F)c(F)c(*)c(F)c1F

This is an account of results in paper PMC9579194, “Selective macrocyclic peptide modulators of Lys63-linked ubiquitin chains disrupt DNA damage repair” (Nature Communications, 2022).

One series addresses T1, Lys63 linked Di-Ub (Homo sapiens, UniProt P0CG48).
T1 construct: made in house; host or cells: total chemical synthesis (Fmoc-SPPS, ligation, desulfurization)
Description: KD determination of fluorophore-labeled cyclic peptides, fluorescence-based assay. Type of series: binding. Conditions: for Kd: fluorophore-labeled peptide, Y = Bmax*X/(KD + X); for Reading-1 / Reading-2 / Reading-3: raw fluorescence, blank not subtracted, Experiments 1-3. The procedure: (ii) Determination of KD value of CP1-FITC
According to the described procedure in literature,3 the KD value of FITC-labeled cyclic peptide 1 (CP1- […]
Supplementary Fig. 25 The carve represents the binding of CP1-FITC to Lys63 linked Di-Ub. Using Y = […]
All measurements were performed in three independent experiments. Bars represent mean values. All source data are provided as a Source […]
(iii) Determination of KD value of CP1-TAMRA
The fluorescence values were measured (λex = 510 nm and λem = 565 nm) in a similar way as described for CP1-FITC. The dissociation constant (KD) value of TAMRA-labeled CP1 (CP1-TAMRA) was calculated as 101.9 ± 3.6 nM. All measurements were performed in triplicates.
Supplementary Fig. 26 The carve represents the binding of CP1-TAMRA to Lys63 linked Di-Ub. Using […]
performed in triplicates. All measurements were performed in three independent experiments. Bars represent mean values. All source data are provided as a Source data file. […]
(iv) Determination of KD value of 2-FITC, 29
The dissociation constant (KD) value of FITC-labeled cyclic peptide 29 was calculated as 43.2± 4 nM.
Supplementary Fig. 27 The carve represents the binding of 2-FITC to Lys63 linked Di-Ub. Using Y = […]
All measurements were performed in triplicates. All measurements were performed in three independent experiments. Bars represent mean values. All source data are provided as a Source data file .
(v) Determination of KD value of 2-TAMRA, 26
CP1-FITC. The dissociation constant (KD) value of TAMRA-labeled 26 (2-TAMRA) was calculated as 47.4 ± 5.9 nM. All measurements were performed in triplicates.
Supplementary Fig. 28 The carve represents the binding of 2-TAMRA to Lys63 linked Di-Ub. Using Y = […]
in triplicates. All measurements were performed in three independent experiments. Bars represent mean […]
(vi) Determination of KD value of FITC labeled cyclic peptide 27a for cyclic peptide 20 […]
Supplementary Fig. 29 The carve represents the binding of 27a to Lys63 linked Di-Ub. Using Y = […]
values. All source data are provided as a Source data file. […]

In series [1] the test system is U2OS cells.
Description: (§1) Cells were seeded for 24 h on Ibidi 8 well µ-slides treated with poly-L-lysine to reach ~90% confluency. Cells were then washed three times with warm PBS followed by incubation for 1 h with a warm serum-free medium (DMEM) containing peptides. Thereafter, cells were washed two times with warm PBS. Prior to imaging, cells were washed with an optical culture medium and stained with Hoechst (2 µg/ml). Live cell CLSM images were captured using Confocal Zeiss LSM 710 equipped with 40× NA 1.2 water immersion objective lens using a 1 AU pinhole settings. Different lasers were used for the different tags (Hoechst, TAMRA, FITC), and during analysis, the µ-slide was kept at 37 °C in a humidified chamber. Images were analyzed using ZEN 3.2 (blue edition).
In a further series the test system is cells. The series is described as follows: Cell membrane integrity analysis, SYTOX blue assay. In kind it is cell-based. Conditions: up to 2 μM of cyclic peptides. Here is the method: To assess the cell toxicity due to the loss of membrane integrity within the concentration range used for efficient live-cell delivery of synthetic cyclic peptide molecules, we proceed similarly to the cell uptake experiment and stain the cells with SYTOX™ Blue (100 nM)[44]. SYTOX™ blue dead cell stain is a high-affinity nucleic acid stain that easily penetrates cells with compromised plasma membranes but will not cross uncompromised cell membranes. […] CLSM images were analyzed using ZEN 3.2 (blue edition).

Series [2] has as its system U2OS cells. The series is described as follows: Cell uptake study by confocal microscopy. Conditions: live U2OS cells, 1 h, laser scanning confocal microscopy.
Description: as §1

As for `CC[C@H](C)[C@@H]1NC(=O)[C@H](Cc2c[nH]c3ccccc23)NC(=O)[C@H]([C@@H](C)CC)NC(=O)[C@H](CC(C)C)NC(=O)[C@H](CS)NC(=O)c2cccc(c2)CSC[C@@H](C(=O)NCC(=O)N[C@@H](C)C(=O)N[C@@H](CSC2CC(=O)N(c3ccc4c(c3)C(=O)OC43c4ccc(O)cc4Oc4cc(O)ccc43)C2=O)C(N)=O)NC(=O)[C@H](CC(C)C)NC(=O)[C@H]([C@@H](C)CC)NC(=O)[C@H](Cc2ccc(O)cc2)NC(=O)[C@@H]2CCCN2C(=O)[C@H](CC(N)=O)NC(=O)[C@H](CCCCN)NC(=O)[C@H](CO)NC(=O)[C@H](CO)NC(=O)CNC1=O` (stereo partly drawn) [2-FITC] (CLIWIGSSKNPYILCGAC(Fluorescein(5-Mal))-NH2; linker N-15 via X1), on Lys63 linked Di-Ub, the Kd amounted to 43.2 ± 4 nM. Further, the “cell-permeability / delivery to cells” value in the series on U2OS cells [1] is listed as “did not observe an efficient delivery”.

In the case of `CC[C@H](C)[C@@H]1NC(=O)[C@H](Cc2c[nH]c3ccccc23)NC(=O)[C@H]([C@@H](C)CC)NC(=O)[C@H](CC(C)C)NC(=O)[C@H](CS)NC(=O)c2cccc(c2)CSC[C@@H](C(=O)NCC(=O)N[C@@H](C)C(=O)N[C@@H](CSC2CC(=O)N(c3ccc(-c4c5ccc(=[N+](C)C)cc-5oc5cc(N(C)C)ccc45)c(C(=O)[O-])c3)C2=O)C(N)=O)NC(=O)[C@H](CC(C)C)NC(=O)[C@H]([C@@H](C)CC)NC(=O)[C@H](Cc2ccc(O)cc2)NC(=O)[C@@H]2CCCN2C(=O)[C@H](CC(N)=O)NC(=O)[C@H](CCCCN)NC(=O)[C@H](CO)NC(=O)[C@H](CO)NC(=O)CNC1=O` (stereo partly drawn) [2-TAMRA] (CLIWIGSSKNPYILCGAC(X2)-NH2; linker N-15 via X1), the Kd at Lys63 linked Di-Ub amounted to 47.4 ± 5.9 nM. For the same molecule, in the series on cells, the “SYTOX signal (cell membrane integrity)” value was “did not detect SYTOX signal”. In addition, the “cell-permeability / delivery to cells” value in the series with U2OS cells [2] was “efficient cell-permeability”.

Regarding `CC[C@H](C)[C@@H]1NC(=O)[C@H](Cc2c[nH]c3ccccc23)NC(=O)[C@H]([C@@H](C)CC)NC(=O)[C@H](CC(C)C)NC(=O)[C@H](CSc2c(F)c(F)c(F)c(F)c2F)NC(=O)c2cccc(c2)CSC[C@@H](C(=O)NCC(=O)N[C@@H](C)C(=O)N[C@@H](CSC2CC(=O)N(c3ccc4c(c3)C(=O)OC43c4ccc(O)cc4Oc4cc(O)ccc43)C2=O)C(N)=O)NC(=O)[C@H](CC(C)C)NC(=O)[C@H]([C@@H](C)CC)NC(=O)[C@H](Cc2ccc(O)cc2)NC(=O)[C@@H]2CCCN2C(=O)[C@H](CC(N)=O)NC(=O)[C@H](CCCCN)NC(=O)[C@H](CO)NC(=O)[C@H](CO)NC(=O)CNC1=O` (stereo partly drawn) [27a] (C(X3)LIWIGSSKNPYILCGAC(Fluorescein(5-Mal))-NH2; linker N-15 via X1), the Kd at Lys63 linked Di-Ub amounted to 285 ± 11.9 nM.

With `CC[C@H](C)[C@@H]1NC(=O)[C@H](Cc2c[nH]c3ccccc23)NC(=O)[C@H]([C@@H](C)CC)NC(=O)[C@H](CC(C)C)NC(=O)[C@H](CC(C)C)NC(=O)c2cccc(c2)CSC[C@@H](C(=O)NCC(=O)N[C@@H](C)C(=O)N[C@@H](CSC2CC(=O)N(c3ccc4c(c3)C(=O)OC43c4ccc(O)cc4Oc4cc(O)ccc43)C2=O)C(N)=O)NC(=O)[C@H](CC(C)C)NC(=O)[C@H]([C@@H](C)CC)NC(=O)[C@H](Cc2ccc(O)cc2)NC(=O)[C@@H]2CCCN2C(=O)[C@H](CC(N)=O)NC(=O)[C@H](CCCCN)NC(=O)[C@H](CO)NC(=O)[C@H](CO)NC(=O)CNC1=O` (stereo partly drawn) [CP1-FITC] (LLIWIGSSKNPYILCGAC(Fluorescein(5-Mal))-NH2; linker N-15 via X1), the Reading-1 at Lys63 linked Di-Ub (conc. 10 nM) was 1192 and 1298 and 1136; on Lys63 linked Di-Ub (conc. 20 nM), 1625 and 1719 and 1573; on Lys63 linked Di-Ub (conc. 40 nM) it was 2317 and 2485 and 2207; at Lys63 linked Di-Ub (conc. 50 nM), 2713 and 2954 and 2674; on Lys63 linked Di-Ub (conc. 100 nM) it was 3252 and 3463 and 3183; at Lys63 linked Di-Ub (conc. 150 nM), 3598 and 3825 and 3755. Further, the Reading-1 is 4108 and 4275 and 4422 on Lys63 linked Di-Ub (conc. 200 nM); 4518 and 4629 and 4716 on Lys63 linked Di-Ub (conc. 250 nM); 4808 and 4979 and 5034 at Lys63 linked Di-Ub (conc. 300 nM). The Reading-2 at Lys63 linked Di-Ub (conc. 10 nM) is 1174 and 1279 and 1151; at Lys63 linked Di-Ub (conc. 20 nM) it was 1643 and 1748 and 1595; at Lys63 linked Di-Ub (conc. 40 nM), 2298 and 2498 and 2217; on Lys63 linked Di-Ub (conc. 50 nM), 2756 and 2925 and 2696; at Lys63 linked Di-Ub (conc. 100 nM) it was 3236 and 3622 and 3192; at Lys63 linked Di-Ub (conc. 150 nM), 3624 and 3817 and 3779. For the same molecule, the Reading-2 on Lys63 linked Di-Ub (conc. 200 nM) was 4147 and 4231 and 4454; at Lys63 linked Di-Ub (conc. 250 nM), 4536 and 4677 and 4749; on Lys63 linked Di-Ub (conc. 300 nM), 4853 and 4995 and 5045. The Reading-3 was 1201 and 1288 and 1189 at Lys63 linked Di-Ub (conc. 10 nM); 1657 and 1774 and 1588 on Lys63 linked Di-Ub (conc. 20 nM); 2354 and 2474 and 2221 at Lys63 linked Di-Ub (conc. 40 nM); 2732 and 2851 and 2602 on Lys63 linked Di-Ub (conc. 50 nM); 3249 and 3477 and 3196 on Lys63 linked Di-Ub (conc. 100 nM); 3602 and 3844 and 3784 at Lys63 linked Di-Ub (conc. 150 nM). Moreover, the Reading-3 at Lys63 linked Di-Ub (conc. 200 nM) was 4171 and 4244 and 4397; on Lys63 linked Di-Ub (conc. 250 nM), 4549 and 4687 and 4765; on Lys63 linked Di-Ub (conc. 300 nM) it was 4869 and 4968 and 5076.

Broadly, the Kd is the constant that tells how readily two partners part at equilibrium.
